Assay results as given in PubChem BioAssay (NCI).
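Cultured in 96-well plates, cells were exposed to test compound for 48 hours across five concentrations. TGI marks complete inhibition of growth.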

Tests used:
Test in all cases: NCI anticancer screen, dose series, 48 h
[1] = tested on: 786-0 renal
[2] = tested on: A498 renal
[3] = tested on: A549 NSCLC
[4] = tested on: ACHN renal
[5] = tested on: BT-549 breast
[6] = tested on: CAKI-1 renal
[7] = tested on: CCRF-CEM leukemia
[8] = tested on: COLO 205 colon
[9] = tested on: DU-145 prostate
[10] = tested on: EKVX NSCLC
[11] = tested on: HCC-2998 colon
[12] = tested on: HCT-116 colon
[13] = tested on: HCT-15 colon
[14] = tested on: HL-60(TB) leukemia
[15] = tested on: HOP-62 NSCLC
[16] = tested on: HOP-92 NSCLC
[17] = tested on: HS 578T breast
[18] = tested on: HT29 colon
[19] = tested on: IGROV1 ovarian
[20] = tested on: K-562 leukemia
[21] = tested on: KM12 colon
[22] = tested on: LOX IMVI melanoma
[23] = tested on: M14 melanoma
[24] = tested on: MALME-3M melanoma
[25] = tested on: MCF7 breast
[26] = tested on: MDA-MB-231 breast
[27] = tested on: MDA-MB-435
[28] = tested on: MDA-N
[29] = tested on: MOLT-4 leukemia
[30] = tested on: NCI-H226 lung
[31] = tested on: NCI-H23 lung
[32] = tested on: NCI-H460 lung
[33] = tested on: NCI-H522 lung
[34] = tested on: NCI/ADR-RES ovarian
[35] = tested on: OVCAR-3 ovarian
[36] = tested on: OVCAR-4 ovarian
[37] = tested on: OVCAR-5 ovarian
[38] = tested on: OVCAR-8 ovarian
[39] = tested on: PC-3 prostate
[40] = tested on: RPMI-8226 leukemia
[41] = tested on: RXF 393 renal
[42] = tested on: SF-268 CNS
[43] = tested on: SF-295 CNS
[44] = tested on: SF-539 CNS
[45] = tested on: SK-MEL-2 melanoma
[46] = tested on: SK-MEL-28 melanoma
[47] = tested on: SK-MEL-5 melanoma
[48] = tested on: SK-OV-3 ovarian
[49] = tested on: SN12C renal
[50] = tested on: SNB-19 CNS
[51] = tested on: SNB-75 CNS
[52] = tested on: SR leukemia
[53] = tested on: SW-620 colon
[54] = tested on: T-47D breast
[55] = tested on: TK-10 renal
[56] = tested on: U251 CNS
[57] = tested on: UACC-257 melanoma
[58] = tested on: UACC-62 melanoma
[59] = tested on: UO-31 renal

`COc1ccc(C(=O)/C=C2\C(=O)Nc3ccc(Br)cc32)cc1` gave a TGI [1] of 3.74 µM, a TGI [2] of 33.7 µM and a TGI [3] greater than 51.2 µM. It also gave a TGI [4] of 3.4 µM, a TGI [5] of 13.8 µM and a TGI [6] of 21.4 µM. For the same compound, the TGI [7] was 32.2 µM, the TGI [8] was 4.56 µM and the TGI [9] was 19.9 µM. It also gave a TGI [10] of 29.1 µM, a TGI [11] of 12.3 µM and a TGI [12] of 8.7 µM. The TGI [13] was 4.86 µM, the TGI [14] was 6.37 µM and the TGI [15] was 37.9 µM. The TGI [16] was 8.39 µM, the TGI [17] was 50.3 µM and the TGI [18] was 3.28 µM. It also gave a TGI [19] of 11.4 µM, a TGI [20] greater than 100 µM and a TGI [21] of 9.16 µM. The TGI [22] was 4.27 µM, the TGI [23] was greater than 48.3 µM and the TGI [24] was 34.6 µM. For the same compound, the TGI [25] was 21.1 µM, the TGI [26] was 15.5 µM and the TGI [27] was 27.8 µM. It also gave a TGI [28] of 16.7 µM, a TGI [29] greater than 21.9 µM and a TGI [30] of 28.6 µM. It also gave a TGI [31] of 16.2 µM, a TGI [32] of 26.7 µM and a TGI [33] of 13.4 µM. For the same compound, the TGI [34] was 3.95 µM, the TGI [35] was 11.2 µM and the TGI [36] was 32.1 µM. The TGI [37] was 46.1 µM, the TGI [38] was 4.7 µM and the TGI [39] was 23.1 µM. For the same compound, the TGI [40] was greater than 23.8 µM, the TGI [41] was 5.08 µM and the TGI [42] was 47.4 µM. It also gave a TGI [43] of 30.6 µM, a TGI [44] of 25.7 µM and a TGI [45] of 37.4 µM. It also gave a TGI [46] of 29 µM, a TGI [47] greater than 50.4 µM and a TGI [48] of 29.6 µM. The TGI [49] was 6.62 µM, the TGI [50] was 36.2 µM and the TGI [51] was 27.8 µM. For the same compound, the TGI [52] was greater than 21.2 µM, the TGI [53] was 7.83 µM and the TGI [54] was 26.3 µM. For the same compound, the TGI [55] was 3.32 µM, the TGI [56] was 34.2 µM and the TGI [57] was 25.9 µM. It also gave a TGI [58] of 29 µM and a TGI [59] of 5.05 µM.

`O=C(O)C(Cc1c[nH]c2ccccc12)C(=O)NO` (configuration not stated) was tested, and the TGI [1] was greater than 100 µM, the TGI [2] was greater than 100 µM and the TGI [3] was greater than 100 µM. The TGI [4] was greater than 100 µM, the TGI [5] was greater than 100 µM and the TGI [6] was greater than 100 µM. It also gave a TGI [7] greater than 100 µM, a TGI [8] greater than 100 µM and a TGI [9] greater than 100 µM. The TGI [10] was greater than 100 µM, the TGI [11] was greater than 100 µM and the TGI [12] was greater than 100 µM. For the same compound, the TGI [13] was greater than 100 µM, the TGI [14] was greater than 100 µM and the TGI [15] was greater than 100 µM. For the same compound, the TGI [16] was greater than 100 µM, the TGI [17] was greater than 100 µM and the TGI [18] was greater than 100 µM. For the same compound, the TGI [19] was greater than 100 µM, the TGI [20] was greater than 100 µM and the TGI [21] was greater than 100 µM. For the same compound, the TGI [22] was greater than 100 µM, the TGI [23] was greater than 100 µM and the TGI [24] was greater than 100 µM. It also gave a TGI [25] greater than 100 µM, a TGI [26] greater than 100 µM and a TGI [27] greater than 100 µM. It also gave a TGI [28] greater than 100 µM, a TGI [29] greater than 100 µM and a TGI [30] greater than 100 µM. It also gave a TGI [31] greater than 100 µM, a TGI [32] greater than 100 µM and a TGI [33] greater than 100 µM. The TGI [34] was greater than 100 µM, the TGI [35] was greater than 100 µM and the TGI [36] was greater than 100 µM. For the same compound, the TGI [37] was greater than 100 µM, the TGI [38] was greater than 100 µM and the TGI [39] was greater than 100 µM. For the same compound, the TGI [40] was greater than 100 µM, the TGI [41] was greater than 100 µM and the TGI [42] was greater than 100 µM. For the same compound, the TGI [43] was greater than 100 µM, the TGI [44] was greater than 100 µM and the TGI [45] was greater than 100 µM. The TGI [46] was greater than 100 µM, the TGI [47] was greater than 100 µM and the TGI [48] was greater than 100 µM. For the same compound, the TGI [49] was greater than 100 µM, the TGI [50] was greater than 100 µM and the TGI [51] was greater than 100 µM. The TGI [52] was greater than 100 µM, the TGI [53] was greater than 100 µM and the TGI [54] was greater than 100 µM. The TGI [55] was greater than 100 µM, the TGI [56] was greater than 100 µM and the TGI [57] was greater than 100 µM. The TGI [58] was greater than 100 µM and the TGI [59] was greater than 100 µM.

In the case of `CC(C)C(Br)CC/C(CBr)=C(\Cl)CCl` (configuration not stated), the TGI [1] is reported as 3.49 µM, the TGI [2] is reported as 35 µM and the TGI [3] is reported as 33.3 µM. It also gave a TGI [4] of 28.2 µM, a TGI [5] of 3.27 µM and a TGI [6] of 9.89 µM. The TGI [7] was 0.995 µM, the TGI [8] was 8.53 µM and the TGI [9] was 25.2 µM. For the same compound, the TGI [10] was 31.9 µM, the TGI [11] was 26.3 µM and the TGI [12] was 5.11 µM. It also gave a TGI [13] of 4.82 µM, a TGI [14] of 3.86 µM and a TGI [15] of 30.3 µM. For the same compound, the TGI [16] was 6.84 µM, the TGI [17] was 15.4 µM and the TGI [18] was 4.09 µM. The TGI [19] was 3.64 µM, the TGI [20] was 3.03 µM and the TGI [21] was 17.9 µM. It also gave a TGI [22] of 1.08 µM, a TGI [23] of 3.82 µM and a TGI [24] of 15.2 µM. It also gave a TGI [25] of 19.3 µM, a TGI [26] of 7.71 µM and a TGI [27] of 5.16 µM. The TGI [28] was 3.81 µM, the TGI [29] was 2.36 µM and the TGI [30] was 6.97 µM. It also gave a TGI [31] of 12.3 µM, a TGI [32] of 30.6 µM and a TGI [33] of 2.02 µM. It also gave a TGI [34] of 16.2 µM, a TGI [35] of 8.21 µM and a TGI [36] of 6.48 µM. For the same compound, the TGI [37] was 23.3 µM, the TGI [38] was 9.82 µM and the TGI [39] was 16.3 µM. For the same compound, the TGI [40] was 4.49 µM, the TGI [41] was 3.66 µM and the TGI [42] was 27.9 µM. The TGI [43] was 28.7 µM, the TGI [44] was 11.4 µM and the TGI [45] was 4.35 µM. The TGI [46] was 10.1 µM, the TGI [47] was 3.8 µM and the TGI [48] was 11.3 µM. It also gave a TGI [49] of 8.5 µM, a TGI [50] of 31.1 µM and a TGI [51] of 13.4 µM. For the same compound, the TGI [52] was 3.71 µM, the TGI [53] was 3.94 µM and the TGI [54] was 3.43 µM. The TGI [55] was 20.1 µM, the TGI [56] was 17.5 µM and the TGI [57] was 9.52 µM. It also gave a TGI [58] of 7.71 µM and a TGI [59] of 15.8 µM.
